Measured values: EP2272342B1, “Herbicidal compositions” (BASF SE, priority 1993, dated 1994)

Experiments:
large crabgrass = assay: Field trial in corn, tankmix at early post-emergence: weed control (Example 2); type: in vivo
Procedure: A field trial is carried out employing FRONTIER® 7.5 EC and ACCENT® 75 WDG in control of large crabgrass in corn. Application is as tankmix combination at early post-emergence of the weeds (3 and 4 leaf stages). Application rates of a.i. are 1.5 and 0.75 kg/ha for dimethenamid and 37.2 and 19.2 g/ha for nicosulfuron. Combined application of 0.75 kg/ha of dimethenamid and 19.2 g/ha of nicosulfuron gave 85% control with negligible corn damage compared with 35% of nicosulfuron applied alone at 19.2 g/ha and 72% for dimethenamid at a higher rate of […]. Combined application at the higher rate of dimethenamid with 37.2 g/ha of nicosulfuron gave an even more dramatic effect with 95% control compared with 72% for dimethenamid and only 45% for nicosulfuron each alone.

cyperus rotundus = assay: Field trial in sugar cane plots, tank mix by backpack sprayer: weed control (Example 5); type: in vivo
Procedure: A field trial is carried out on plots (2 x 20 m) planted with sugar cane and infested with cyperus rotundus in the first or second growing stage and sprayed with a backpack sprayer in different concentrations in a tank mix. The amount of liquid spray broth is 400 I/ha.
The application rates are 2.7 kg/ha of dimethenamid with 60 g/ha of chlorimuron or with 1.6 kg/ha of a fixed ratio mixture of chlorimuron and diuron (1 : 19) which is commercially available as FRONT®. Visual evaluation is done 30 or 60 days after treatment (DAT) in percentage of control. The expected additive effect value is calculated according to the method of Colby: […]

echinochloa crus galli = assay: Small field units in a maize field, 3-way tank-mix spray: weed control (Example 4); type: in vivo; details: 1500 a.i./ha; 14 days after treatment
Text: (§1) Small field units in a maize field, infested with echinochloa crus galli, solanum nigrum and chenopodium album are sprayed with a tank-mix suspension of dimethenamid, sulcotrione and atrazine. The stage of the weeds is "full tillering" of echinochloa and "6-8 leaves stage" for solanum and chenopodium. The lot size is 8 meters in length and 3 meters in broadth. The application rates are 1.08 kg/ha of dimethenamid, 150 or 210 g/ha of sulcotrione and 750 g/ha of atrazine. 14 days after treatment the efficacy is evaluated.

Solanum/Chenopodium = assay: as above; type: in vivo, solanum nigrum and chenopodium album; details: 1500 a.i./ha; 14 days after treatment
Procedure: as §1, with “The application rates are 1.08 kg/ha of dimethenamid, 150 or 210 g/ha of sulcotrione and 750 g/ha of atrazine.” left out

Molecule: COCC(C)N(C(=O)CCl)c1c(C)csc1C (centres unmarked) [Dimethenamid, 2-chloro-N-(2,4-dimethyl-3-thienyl)-N-(2-methoxy-1-methylethyl)-acetamide]
- control (large crabgrass; dimethenamid alone at a higher rate of 1.25 g/ha (so in the source)): 72%
- control (large crabgrass; dimethenamid alone, higher rate (second comparison)): 72%
- Cyperus Control (DAT) (cyperus rotundus; 2.25 kg a.i./ha, light to medium soil, 30 DAT): 23 (30 DAT) %
- Cyperus Control (DAT) (cyperus rotundus; 2.7 kg a.i./ha, heavy soil, 60 DAT): 10 (60 DAT) %
- Cyperus Control (DAT) (cyperus rotundus; 2.7 kg a.i./ha, light to medium soil, 30 DAT): 27 (30 DAT) %
- Cyperus Control (DAT) (cyperus rotundus; 2.7 kg a.i./ha, light to medium soil, 60 DAT): 19 (60 DAT) %

Molecule: COc1cc(OC)nc(NC(=O)NS(=O)(=O)c2ncccc2C(=O)N(C)C)n1 [nicosulfuron]
- control (large crabgrass; nicosulfuron alone, 37.2 g/ha): 45%
- control (large crabgrass; nicosulfuron applied alone at 19.2 g/ha): 35%

Molecule: chlorimuron
- Cyperus Control (DAT) (cyperus rotundus; 0.06 kg a.i./ha, light to medium soil, 30 DAT): 58 (30 DAT) %

Molecule: CCNc1nc(Cl)nc(NC(C)C)n1 [Atrazine, atrazine]
- Echinochloa control (echinochloa crus galli): 23%
- Solanum/Chenopodium control (Solanum/Chenopodium): 16%
